Reference: patent US20260138959A1, “QUINAZOLINE DERIVATIVE COMPOUND AND USE THEREOF” (VORONOI INC., priority 2021, published 2026)

How the values were obtained:
Ba/F3-c-KIT(D816V) = assay: Proliferation inhibitory activity on Ba/F3 cell (CellTiter-Glo, 72 hours), c-KIT(D816V); type: cell-based; details: Mus musculus, BaF3, read-out: Ba/F3 (nM) c-KIT (D816V) (GI50 class)
Procedure: (§1) Ba/F3-TEL-PDGFRα(WT), Ba/F3-TEL-PDGFβ(WT), Ba/F3-c-KIT(D816V) (Kyinno, #KC-0138), c-KIT V560G/D816V, c-KIT D814Y were seeded at 3×10^3/100 μl/well in a clear bottom white 96-well plate. A culture solution containing compounds of 12 concentrations (0.00001-2 mM) serially diluted in 3 folds and the DMSO control group was added at 0.5 μl/well each to a final concentration of 0.00005-10 μM, and then incubated in a CO2 incubator at 37° C. for 72 hours. After 72 hours, the plate treated with the compound was taken out, CellTiter-Glo® Assay (Promega) solution was treated with 100 μl/well, followed by mixing well. After mixing well for about 10 minutes at room temperature, […] was measured using a microplate reader. The data were presented as percentages in proportion to treated cells based on the vehicle, GI50 (nM) values were calculated using GraphPad Prism 8.3.0 (GraphPad software Inc., San Diego).
(§2) The inhibitory activities of Ba/F3 expressing PDGFR-α, PDGFR-β, c-KIT(D816V), c-KIT V560G/D816V, and c-KIT D814Y measured as described above were measured and shown in Table 7 below (A: GI50≤200 nM; B: 200 nM<GI50≤500 nM; C: GI50>500 nM).

c-KIT V560G/D816V = assay: Proliferation inhibitory activity on Ba/F3 cell (CellTiter-Glo, 72 hours), c-KIT V560G/D816V; type: cell-based; details: Mus musculus, BaF3, c-KIT V560G/D816V cells, read-out: Cell (nM) c-KIT V560G/D816V (GI50 class)
Procedure: as §1, §2

Row | SMILES | GI50 (Ba/F3-c-KIT(D816V)) [nM] | GI50 (c-KIT V560G/D816V) [nM]
1 | COc1cc2c(-c3ccc(NC(=O)Cc4ccc(C(F)(F)F)cc4)cc3)ncnc2cc1OCC1CCCN(C(=O)OC(C)(C)C)C1 (stereo not shown) [Example 14, tert-butyl 3-(((6-methoxy-4-(4-(2-(4-(trifluoromethyl)phenyl)acetamido)phenyl)quinazolin-7-yl)oxy)methyl)piperidin-1-carboxylate] | > 500 | 
2 | COc1cc2c(-c3ccc(NC(=O)Cc4ccc(C(F)(F)F)cc4)cc3)ncnc2cc1OCC1CCCNC1 (stereo not shown) [Example 16, N-(4-(6-methoxy-7-(piperidin-3-ylmethoxy)quinazolin-4-yl)phenyl)-2-(4-(trifluoromethyl)phenyl)acetamide] | ≤ 200 | 
3 | COc1cc2c(-c3ccc(NC(=O)Cc4ccc(C(F)(F)F)cc4)cc3)ncnc2cc1OCCCN1CC2(C1)CN(C(=O)OC(C)(C)C)C2 [Example 19] | ≤ 200 | 
4 | COc1cc2c(-c3ccc(NC(=O)Cc4ccc(C(F)(F)F)cc4)cc3)ncnc2cc1OCCCN1CC2(CNC2)C1 [Example 20, N-(4-(7-(3-(2,6-diazaspiro[3.3]heptane-2-yl)propoxy)-6-methoxyquinazolin-4-yl)phenyl)-2-(4-(trifluoromethyl)phenyl)acetamide] | > 500 | 
5 | CCN1CC2(C1)CN(CCCOc1cc3ncnc(-c4ccc(NC(=O)Cc5ccc(C(F)(F)F)cc5)cc4)c3cc1OC)C2 [Example 21, N-(4-(7-(3-(6-ethyl-2,6-diazaspiro[3.3]heptane-2-yl)propoxy)-6-methoxyquinazolin-4-yl)phenyl)-2-(4-(trifluoromethyl)phenyl)acetamide] | ≤ 200 | 
6 | COc1cc2c(-c3ccc(NC(=O)Cc4ccc(C(F)(F)F)cc4)cc3)ncnc2cc1OCCCNc1cnn(C)c1 [Example 26, N-(4-(6-methoxy-7-(3-((1-methyl-1H-pyrazol-4-yl)amino)propoxy)quinazolin-4-yl)phenyl)-2-(4-(trifluoromethyl)phenyl)acetamide] | ≤ 200 | 
7 | COc1cc2c(-c3ccc(NC(=O)Cc4ccc(C(F)(F)F)cc4)cc3)ncnc2cc1OC[C@@H]1CCNC1 [Example 38, (R)-N-(4-(6-methoxy-7-(pyrrolidin-3-ylmethoxy)quinazolin-4-yl)phenyl)-2-(4-(trifluoromethyl)phenyl)acetamide] | ≤ 200 | 
8 | COc1cc2c(-c3ccc(NC(=O)Cn4cc(C(C)C)nn4)cc3)ncnc2cc1OCC1CCN(C)CC1 [Example 105, 2-(4-isopropyl-1H-1,2,3-triazole-1-yl)-N-(4-(6-methoxy-7-((1-methylpiperidin-4-yl)methoxy)quinazolin-4-yl)phenyl)acetamide] |  | > 500
9 | COc1cc2c(-c3ccc(NC(=O)Cn4cc(C(C)(C)C)nn4)cc3)ncnc2cc1OCC1CCN(C)CC1 [Example 106, 2-(4-(tert-butyl)-1H-1,2,3-triazole-1-yl)-N-(4-(6-methoxy-7-((1-methylpiperidin-4-yl)methoxy)quinazolin-4-yl)phenyl)acetamide] |  | > 500
10 | COc1cc2c(-c3ccc(NC(=O)Cn4cc(C(C)C)nn4)cc3)ncnc2cc1OCC1CCN(C(C)=O)CC1 [Example 107, N-(4-(7-((1-acetylpiperidin-4-yl)methoxy)-6-methoxyquinazolin-4-yl)phenyl)-2-(4-isopropyl-1H-1,2,3-triazole-1-yl)acetamide] |  | > 500
11 | COc1cc2c(-c3ccc(NC(=O)Cn4cc(C(C)(C)C)nn4)cc3)ncnc2cc1OCC1CCN(C(C)=O)CC1 [Example 108, N-(4-(7-((1-acetylpiperidin-4-yl)methoxy)-6-methoxyquinazolin-4-yl)phenyl)-2-(4-(tert-butyl)-1H-1,2,3-triazole-1-yl)acetamide] |  | > 500
12 | CCN1CCCC(COc2cc3ncnc(-c4ccc(NC(=O)Cn5cc(C(C)C)nn5)cc4)c3cc2OC)C1 (stereo not shown) [Example 111, N-(4-(7-((1-ethylpiperidin-3-yl)methoxy)-6-methoxyquinazolin-4-yl)phenyl)-2-(4-isopropyl-1H-1,2,3-triazole-1-yl)acetamide] |  | > 500
13 | CCN1CCCC(COc2cc3ncnc(-c4ccc(NC(=O)Cn5cc(C(C)(C)C)nn5)cc4)c3cc2OC)C1 (stereo not shown) [Example 112, 2-(4-(tert-butyl)-1H-1,2,3-triazole-1-yl)-N-(4-(7-((1-ethylpiperidin-3-yl)methoxy)-6-methoxyquinazolin-4-yl)phenyl)acetamide] |  | > 500
14 | COc1cc2c(-c3ccc(NC(=O)Cn4cc(C(C)(C)C)nn4)cc3)ncnc2cc1OCC1CCN(C(C)C)CC1 [Example 119, 2-(4-(tert-butyl)-1H-1,2,3-triazole-1-yl)-N-(4-(7-((1-isopropylpiperidin-4-yl)methoxy)-6-methoxyquinazolin-4-yl)phenyl)acetamide] |  | > 500
15 | COc1cc2c(-c3ccc(NC(=O)Cn4cc(C(C)C)nn4)cc3)ncnc2cc1OCC1CCN(C(C)C)CC1 [Example 120, 2-(4-isopropyl-1H-1,2,3-triazole-1-yl)-N-(4-(7-((1-isopropylpiperidin-4-yl)methoxy)-6-methoxyquinazolin-4-yl)phenyl)acetamide] |  | > 500

The remaining lines, values ahead:

Row | GI50 (Ba/F3-c-KIT(D816V)) [nM] | GI50 (c-KIT V560G/D816V) [nM] | SMILES
16 |  | > 500 | COc1cc2c(-c3ccc(NC(=O)Cc4ccc(C(F)(F)F)cc4)cc3)ncnc2cc1OCC1CCN(C(=O)OC(C)(C)C)CC1 [Example 15, tert-butyl 4-(((6-methoxy-4-(4-(2-(4-(trifluoromethyl)phenyl)acetamido)phenyl)quinazolin-7-yl)oxy)methyl)piperidin-1-carboxylate]
17 |  | ≤ 200 | COc1cc2c(-c3ccc(NC(=O)Cc4ccc(C(F)(F)F)cc4)cc3)ncnc2cc1OCC1CCNCC1 [Example 17, N-(4-(6-methoxy-7-(piperidin-4-ylmethoxy)quinazolin-4-yl)phenyl)-2-(4-(trifluoromethyl)phenyl)acetamide]
18 |  | 200 to 500 | COc1cc2c(-c3ccc(NC(=O)C(C)(C)c4ccc(F)cc4)cc3)ncnc2cc1OCC1CCNCC1 [Example 88, 2-(4-fluorophenyl)-N-(4-(6-methoxy-7-(piperidin-4-ylmethoxy)quinazolin-4-yl)phenyl)-2-methylpropanamide]
19 |  | 200 to 500 | COc1cc2c(-c3ccc(NC(=O)C4(c5ccc(F)cc5)CC4)cc3)ncnc2cc1OCC1CCNCC1 [Example 91, 1-(4-fluorophenyl)-N-(4-(6-methoxy-7-(piperidin-4-ylmethoxy)quinazolin-4-yl)phenyl)cyclopropane-1-carboxamide]
20 |  | 200 to 500 | COCCN1CCC(COc2cc3ncnc(-c4ccc(NC(=O)C5(c6ccc(F)cc6)CC5)cc4)c3cc2OC)CC1 [Example 92, 1-(4-fluorophenyl)-N-(4-(6-methoxy-7-((1-(2-methoxyethyl)piperidin-4-yl)methoxy)quinazolin-4-yl)phenyl)cyclopropane-1-carboxamide]
21 |  | 200 to 500 | CCN1CCC(COc2cc3ncnc(-c4ccc(NC(=O)C5(c6ccc(F)cc6)CC5)cc4)c3cc2OC)CC1 [Example 93, N-(4-(7-((1-ethylpiperidin-4-yl)methoxy)-6-methoxyquinazolin-4-yl)phenyl)-1-(4-fluorophenyl)cyclopropane-1-carboxamide]
22 |  | > 500 | COCCN1CCC(COc2cc3ncnc(-c4ccc(NC(=O)Cn5cc(C(C)C)nn5)cc4)c3cc2OC)CC1 [Example 94, 2-(4-isopropyl-1H-1,2,3-triazole-1-yl)-N-(4-(6-methoxy-7-((1-(2-methoxyethyl)piperidin-4-yl)methoxy)quinazolin-4-yl)phenyl)acetamide]
23 |  | > 500 | COCCN1CCC(COc2cc3ncnc(-c4ccc(NC(=O)Cn5cc(C(C)(C)C)nn5)cc4)c3cc2OC)CC1 [Example 95, 2-(4-(tert-butyl)-1H-1,2,3-triazole-1-yl)-N-(4-(6-methoxy-7-((1-(2-methoxyethyl)piperidin-4-yl)methoxy)quinazolin-4-yl)phenyl)acetamide]
24 |  | ≤ 200 | COc1cc2c(-c3ccc(NC(=O)Cc4ccc(C(F)(F)F)cc4)cc3)ncnc2cc1OCC1CCN(C(C)=O)CC1 [Example 102, N-(4-(7-((1-acetylpiperidin-4-yl)methoxy)-6-methoxyquinazolin-4-yl)phenyl)-2-(4-(trifluoromethyl)phenyl)acetamide]
25 |  | 200 to 500 | COc1ccc(CC(=O)Nc2ccc(-c3ncnc4cc(OCC5CCN(C(C)=O)CC5)c(OC)cc34)cc2)cn1 [Example 103, N-(4-(7-((1-acetylpiperidin-4-yl)methoxy)-6-methoxyquinazolin-4-yl)phenyl)-2-(6-methoxypyridin-3-yl)acetamide]
26 |  | 200 to 500 | COc1cc2c(-c3ccc(NC(=O)Cc4ccc(C(F)(F)F)nc4)cc3)ncnc2cc1OCC1CCN(C(C)=O)CC1 [Example 104, N-(4-(7-((1-acetylpiperidin-4-yl)methoxy)-6-methoxyquinazolin-4-yl)phenyl)-2-(6-(trifluoromethyl)pyridin-3-yl)acetamide]
27 |  | 200 to 500 | COCCN1CCC(COc2cc3ncnc(-c4ccc(NC(=O)CCCc5ccccc5)cc4)c3cc2OC)CC1 [Example 114, N-(4-(6-methoxy-7-((1-(2-methoxyethyl)piperidin-4-yl)methoxy)quinazolin-4-yl)phenyl)-4-phenylbutanamide]
28 |  | ≤ 200 | COCCOc1cc2ncnc(-c3ccc(NC(=O)Cc4ccc(C(F)(F)F)cc4)cc3)c2cc1OC [Example 117, N-(4-(6-methoxy-7-(2-methoxyethoxy)quinazolin-4-yl)phenyl)-2-(4-(trifluoromethyl)phenyl)acetamide]
